Read-outs that look alike come from different tables or passages of the source.
Columns and labels:
[1] = cited from earlier work
[2] = in vivo
[3] = Evaluation of various buffering systems on human skin; details: sensitive, healthy or eczema affected skin

SMILES | skin irritation / tolerability [2] | other results
N[C@@H](CC(=O)O)C(=O)O [aspartic acid] | – | pKa [1]: around 3.65
O=C(O)CC(O)(CC(=O)O)C(=O)O [Citric acid] | well tolerated on healthy and eczema affected skin | –
O=C(O)[C@H](O)[C@@H](O)[C@H](O)[C@H](O)CO [Gluconic acid] | well tolerated on healthy and eczema affected skin | –
CC(O)C(=O)O (centres unmarked) [lactic acid] | may be irritating for sensitive skin | –
O=C(O)CO [glycolic acid] | – | skin irritation / tolerability [3]: may be irritating for sensitive skin
